In US5126227A, “High contrast photographic elements containing ballasted hydrophobic isothioureas” (priority 1990, dated 1992):

assay: Solubility stated in words; format: physicochemical

| Compound | solubility (in words) |
| --- | --- |
| N=C(N)SCCCS(=O)(=O)O [Comparative test F] | less soluble |
| N=C(N)SCCCCS(=O)(=O)O [Comparative test G] | less soluble |
| CC(CCSC(=N)N)S(=O)(=O)O (stereo not shown) [Comparative test H] | less soluble |
| N=C(N)SCCS(=O)(=O)O [Comparative test E] | highly soluble |
